US9034887B2, “Dihydroorotate dehydrogenase as antifungal drug target and quinazolinone-based inhibitors thereof” (F2G Limited, priority 2008, dated 2015)
Converted amounts (≈) assume the structure as drawn.

Columns and labels:
[1] = biological target: T1, Recombinant DHODH from human (Homo sapiens, UniProt Q02127); assay: DHODH inhibition screen (DCIP reduction, 600 nm), human enzyme; format: biochemical; details: Table 3, read-out: IC50 values for Compound Examples 1 to 15 identified from screens, Human
T1 construct: His-tag; NusA (Nus-tag) fusion of vector pET43.1 (own knowledge of the vector) (N); made in house; host or cells: E. coli BL21 DE3
Procedure: (§1) 1. The following buffer and stock solution were prepared:
Coenzyme Q2 (Sigma) was dissolved in DMSO to give a concentration of 10 mg/ml. […] The stock solution was made with 127.36 μl DHO, 127.36 μl DCIP and 318.4 μl Coenzyme Q2, made up to 80 ml with Buffer A. Final concentrations in assay wells were; DHO, 500 μM; Coenzyme Q, 50 μM; DCIP, 100 μM.
2. […] Duplicate sets of plates were used such that one set received enzyme while a control set received no enzyme.
3. […] Then 20 μl of DHODH solution was added to all the +enzyme plates and 20 μl of Buffer A was added to all the control −enzyme plates.
(§2) 4. 20 μl of DHO/Coenzyme Q2/DCIP solution was added to all the wells, after which plates were incubated at room temperature for […] and then read on a Tecan Safire spectrophotometer at 600 nm.
(§3) Recombinant DHODH from human or C. albicans was assayed in the same way. It is necessary to adjust the enzyme concentration and reaction time to take into account variations in activity of enzyme batches, thus the incubation time was 20 minutes for the C. albicans enzyme and 34 minutes for the human enzyme.

[2] = biological target: Recombinant A. fumigatus DHODH (Aspergillus fumigatus, UniProt Q4X169); assay: DHODH inhibition screen (DCIP reduction, 600 nm), A. fumigatus enzyme; format: biochemical
Procedure: as §1
Buffer A: 62.5 mM TrisHCl (pH8.0), 150 mM NaCl, 10% v/v glycerol
DHO/Coenzyme Q2/DCIP solution: 19.848 mg dihydroorotate (DHO; Sigma) was dissolved in 160 μl DMSO. Coenzyme Q2 (Sigma) was dissolved in DMSO to give a concentration of 10 mg/ml. 7.236 mg 2,6-dichloroindophenol (DCIP; Sigma) was dissolved in 160 μl DMSO. The stock solution was made with 127.36 μl DHO, 127.36 μl DCIP and 318.4 μl Coenzyme Q2, made up to 80 ml with Buffer A. Final concentrations in assay wells were; DHO, 500 μM; Coenzyme Q, 50 μM; DCIP, 100 μM.
2. Compounds were aliquotted into 384-well microtitre plates at a range of dilutions to give final concentrations in the assay of […]. Duplicate sets of plates were used such that one set received enzyme while a control set received no enzyme. Since compounds are frequently dissolved in DMSO or a DMSO/water mixture, assays were set up to give a final concentration of 1% (v/v) DMSO in wells.
3. Recombinant A. fumigatus DHODH was suspended in Buffer A to give a concentration of 1435.8 ng protein in 20 μl. Then 20 μl of DHODH solution was added to all the +enzyme plates and 20 μl of Buffer A was added to all the control −enzyme plates.
as §2
as §3, with “enzyme. Compounds are screened against a fungal and human enzyme to identify compounds which are selective for the fungal enzyme.” for “enzyme.”

Aspergillus flavus [3] = assay: MIC in YAG medium, A. flavus; format: cell-based; details: 24 hrs at 35° C., >70% growth inhibition, read-out: MIC grade, A. flavus
Procedure: (§4) Between 1 and 5 mgs of compound were accurately weighed out into a sterile Eppendorf tube. The compound was dissolved in DMSO to give a solution containing 5 mg/mL. Tubes were stored at −20° C. until required.
(§5) On the day of testing thawed solutions were vortex mixed to ensure homogeneity. 30 μL of solution was removed and added to 570 μL of sterile water in a separate sterile Eppendorf. The thoroughly mixed solution was used to prepare a series of doubling dilutions in water, in a deep well plate. Thirteen replicate plates were prepared using a Minitrak by aspirating 20 μL from each well into eleven clear polystyrene 96 well plates.
(§6) Spores of Aspergillus spp. (Aspergillus fumigatus [two strains], Aspergillus terreus [two strains], Aspergillus niger and Aspergillus flavus) were harvested from cultures grown on Sabarauds agar for 5 days, and resuspended in PBS/Tween 80 to approx 1×10^7 cfu/mL. Each organism suspension was diluted in YAG medium (1% glucose, 1% ammonium chloride and 0.5% yeast extract) to 0.5-2×10^4 cfu/mL. 80 μL of an organism suspension was added to each well of the plate containing drug dilutions.
(§7) All plates were incubated for 24 hrs at 35° C. Growth was assessed by monitoring the optical density at 485 nm for each well. The MIC of a compound is the lowest drug concentration that inhibits growth of an organism by >70% compared with a drug free control. MICs are recorded as mg/L. In cases where the MIC of an organism is […] the MIC is repeated using a concentration range of 0.5-0.0005 mg/L.

Aspergillus fumigatus = assay: MIC in YAG medium, A. fumigatus; format: cell-based; details: 24 hrs at 35° C., >70% growth inhibition, read-out: MIC grade, A. fumigatus
Procedure: as §4, §5, §6, §7

A. fumigatus 210 = assay: MIC in YAG medium, A. fumigatus 210; format: cell-based; details: Aspergillus fumigatus, 24 hrs at 35° C., >70% growth inhibition, read-out: MIC grade, A. fumigatus 210
Procedure: as §4, §5, §6, §7

Aspergillus niger [4] = assay: MIC in YAG medium, A. niger; format: cell-based; details: 24 hrs at 35° C., >70% growth inhibition, read-out: MIC grade, A. niger
Procedure: as §4, §5, §6, §7

Aspergillus terreus = assay: MIC in YAG medium, A. terreus; format: cell-based; details: 24 hrs at 35° C., >70% growth inhibition, read-out: MIC grade, A. terreus
Procedure: as §4, §5, §6, §7

A. terreus 49 = assay: MIC in YAG medium, A. terreus 49; format: cell-based; details: Aspergillus terreus, 24 hrs at 35° C., >70% growth inhibition, read-out: MIC grade, A. terreus 49
Procedure: as §4, §5, §6, §7

Aspergillus flavus [5] = assay: MIC in RPMI medium, A. flavus; format: cell-based; details: 24-48 hrs at 35° C., >80% growth inhibition, read-out: MIC grade, A. flavus
Procedure: as §4, §5
(§8) Assays were also performed in RPMI medium. To perform MIC tests in this medium, dilutions of compounds are prepared in microtitre plates as described above. Fungal strains to be tested are grown and harvested in an identical manner to that described above, and each organism suspension was diluted in RPMI medium, containing 2% glucose and 0.135 M MOPS buffer (pH 7.0) to 0.5-2×10^4 cfu/mL, rather than in YAG medium. 80 μL of an organism suspension was added to each well of the plate containing drug dilutions.
(§9) All plates were incubated for 24-48 hrs at 35° C. Growth was assessed by monitoring the optical density at 485 nm for each well. […] The following organisms were tested: Aspergillus flavus, Aspergillus fumigatus AF293 and AF210, Aspergillus niger and Aspergillus terreus AT4 and AT49.

[6] = tested on: Aspergillus fumigatus AF293; assay: MIC in RPMI medium, A. fumigatus; format: cell-based; details: 24-48 hrs at 35° C., >80% growth inhibition, read-out: MIC grade, A. fumigatus
Procedure: as §4, §5, §8, §9

[7] = tested on: Aspergillus fumigatus AF210; assay: MIC in RPMI medium, A. fumigatus 210; format: cell-based; details: 24-48 hrs at 35° C., >80% growth inhibition, read-out: MIC grade, A. fumigatus 210
Procedure: as §4, §5, §8, §9

Aspergillus niger [8] = assay: MIC in RPMI medium, A. niger; format: cell-based; details: 24-48 hrs at 35° C., >80% growth inhibition, read-out: MIC grade, A. niger
Procedure: as §4, §5, §8, §9

Aspergillus terreus AT4 = assay: MIC in RPMI medium, A. terreus; format: cell-based; details: 24-48 hrs at 35° C., >80% growth inhibition, read-out: MIC grade, A. terreus
Procedure: as §4, §5, §8, §9

Aspergillus terreus AT49 = assay: MIC in RPMI medium, A. terreus 49; format: cell-based; details: 24-48 hrs at 35° C., >80% growth inhibition, read-out: MIC grade, A. terreus 49
Procedure: as §4, §5, §8, §9

T1 sequence (Q02127 31-395 limits assumed): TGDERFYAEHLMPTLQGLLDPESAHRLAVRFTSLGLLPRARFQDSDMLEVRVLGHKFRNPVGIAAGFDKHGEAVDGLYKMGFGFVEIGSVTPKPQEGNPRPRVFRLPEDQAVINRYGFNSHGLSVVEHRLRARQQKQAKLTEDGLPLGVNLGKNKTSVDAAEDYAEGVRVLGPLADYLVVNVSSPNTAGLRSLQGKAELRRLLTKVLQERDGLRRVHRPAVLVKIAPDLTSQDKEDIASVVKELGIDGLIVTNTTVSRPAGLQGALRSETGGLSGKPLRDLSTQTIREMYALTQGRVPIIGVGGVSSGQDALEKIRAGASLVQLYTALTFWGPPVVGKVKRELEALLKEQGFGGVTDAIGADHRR
Recombinant A. fumigatus DHODH, sequence (Q4X169 entry or part of it): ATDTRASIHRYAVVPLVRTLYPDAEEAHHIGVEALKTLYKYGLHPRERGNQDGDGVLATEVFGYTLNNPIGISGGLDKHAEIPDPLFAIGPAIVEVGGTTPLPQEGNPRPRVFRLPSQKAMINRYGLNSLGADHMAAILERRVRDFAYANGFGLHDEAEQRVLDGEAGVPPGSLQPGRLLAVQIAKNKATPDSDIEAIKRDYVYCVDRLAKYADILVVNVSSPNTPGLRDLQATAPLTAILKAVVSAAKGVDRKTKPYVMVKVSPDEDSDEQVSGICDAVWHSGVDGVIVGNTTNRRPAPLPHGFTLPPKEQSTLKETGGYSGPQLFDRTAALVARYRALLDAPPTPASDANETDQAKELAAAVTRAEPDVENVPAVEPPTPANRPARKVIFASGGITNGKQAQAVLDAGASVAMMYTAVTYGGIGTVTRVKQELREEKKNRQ

SMILES | IC50 [1] [µM] | IC50 [2] [µM] | MIC (Aspergillus flavus [3]) [µg/mL] | MIC (Aspergillus fumigatus) [µg/mL] | MIC (A. fumigatus 210) [µg/mL] | MIC (Aspergillus niger [4]) [µg/mL] | MIC (Aspergillus terreus) [µg/mL] | MIC (A. terreus 49) [µg/mL] | MIC (Aspergillus flavus [5]) [µg/mL] | MIC [6] [µg/mL] | MIC [7] [µg/mL] | MIC (Aspergillus niger [8]) [µg/mL] | MIC (Aspergillus terreus AT4) [µg/mL] | MIC (Aspergillus terreus AT49) [µg/mL]
CCSc1nc2cccc(OC)c2c(=O)n1-c1ccccc1OC [Compound Example 12, 2-Ethylsulfanyl-5-methoxy-3-(2-methoxy-phenyl)-3H-quinazolin-4-one] | 117 | 26.9 | 1 to 10 (≈ 2.92 to 29.2 µM) | < 1 | < 1 | < 1 | 1 to 10 (≈ 2.92 to 29.2 µM) | < 1 | > 10 | 1 to 10 (≈ 2.92 to 29.2 µM) | 1 to 10 (≈ 2.92 to 29.2 µM) | < 1 | 1 to 10 (≈ 2.92 to 29.2 µM) | 1 to 10 (≈ 2.92 to 29.2 µM)
CCSc1nc2ccccc2c(=O)n1-c1ccccc1CC [Compound Example 13, 3-(2-Ethyl-phenyl)-2-ethylsulfanyl-3H-quinazolin-4-one] | 86.1 | 36.2 | > 10 | 1 to 10 (≈ 3.22 to 32.2 µM) | 1 to 10 (≈ 3.22 to 32.2 µM) | < 1 | 1 to 10 (≈ 3.22 to 32.2 µM) | 1 to 10 (≈ 3.22 to 32.2 µM) | > 10 | 1 to 10 (≈ 3.22 to 32.2 µM) | > 10 | 1 to 10 (≈ 3.22 to 32.2 µM) | > 10 | > 10
COc1ccccc1-n1c(SC(C)C)nc2ccc(C)cc2c1=O [Compound Example 2, 2-Isopropylsulfanyl-3-(2-methoxy-phenyl)-6-methyl-3H-quinazolin-4-one] | – | – | > 10 | < 1 | < 1 | < 1 | < 1 | < 1 | > 10 | 1 to 10 (≈ 2.94 to 29.4 µM) | 1 to 10 (≈ 2.94 to 29.4 µM) | < 1 | > 10 | 1 to 10 (≈ 2.94 to 29.4 µM)
COc1ccccc1-n1c(SC(C)C)nc2cccc(C)c2c1=O [Compound Example 3, 2-Isopropylsulfanyl-3-(2-methoxy-phenyl)-5-methyl-3H-quinazolin-4-one] | – | – | > 10 | < 1 | < 1 | < 1 | < 1 | < 1 | > 10 | 1 to 10 (≈ 2.94 to 29.4 µM) | 1 to 10 (≈ 2.94 to 29.4 µM) | < 1 | > 10 | 1 to 10 (≈ 2.94 to 29.4 µM)
CC(C)Sc1nc2ccccc2c(=O)n1-c1ccccc1N(C)C [Compound Example 11, 3-(2-Dimethylamino-phenyl)-2-isopropylsulfanyl-3H-quinazolin-4-one] | 118 | 21.2 | > 10 | 1 to 10 (≈ 2.95 to 29.5 µM) | 1 to 10 (≈ 2.95 to 29.5 µM) | 1 to 10 (≈ 2.95 to 29.5 µM) | 1 to 10 (≈ 2.95 to 29.5 µM) | 1 to 10 (≈ 2.95 to 29.5 µM) | > 10 | 1 to 10 (≈ 2.95 to 29.5 µM) | > 10 | 1 to 10 (≈ 2.95 to 29.5 µM) | > 10 | > 10
CCSc1nc2cc(C)ccc2c(=O)n1-c1ccccc1OC [Compound Example 5, 2-Ethylsulfanyl-3-(2-methoxy-phenyl)-7-methyl-3H-quinazolin-4-one] | 15.5 | 5.4 | < 1 | < 1 | < 1 | < 1 | < 1 | < 1 | > 10 | 1 to 10 (≈ 3.06 to 30.6 µM) | 1 to 10 (≈ 3.06 to 30.6 µM) | > 10 | 1 to 10 (≈ 3.06 to 30.6 µM) | 1 to 10 (≈ 3.06 to 30.6 µM)
COc1ccccc1-n1c(SC(C)C)nc2cccc(OC)c2c1=O [Compound Example 4, 2-Isopropylsulfanyl-5-methoxy-3-(2-methoxy-phenyl)-3H-quinazolin-4-one] | 73 | 4.95 | 1 to 10 (≈ 2.81 to 28.1 µM) | < 1 | < 1 | < 1 | < 1 | < 1 | > 10 | < 1 | 1 to 10 (≈ 2.81 to 28.1 µM) | < 1 | 1 to 10 (≈ 2.81 to 28.1 µM) | 1 to 10 (≈ 2.81 to 28.1 µM)
COc1ccc2nc(SC(C)C)n(-c3ccccc3OC)c(=O)c2c1 [Compound Example 10, 2-Isopropylsulfanyl-6-methoxy-3-(2-methoxy-phenyl)-3H-quinazolin-4-one] | 50.2 | 19.6 | > 10 | 1 to 10 (≈ 2.81 to 28.1 µM) | 1 to 10 (≈ 2.81 to 28.1 µM) | < 1 | 1 to 10 (≈ 2.81 to 28.1 µM) | < 1 | > 10 | > 10 | > 10 | 1 to 10 (≈ 2.81 to 28.1 µM) | > 10 | > 10
COc1ccccc1-n1c(SC(C)C)nc2cc(C)ccc2c1=O [Compound Example 1, 2-Isopropylsulfanyl-3-(2-methoxy-phenyl)-7-methyl-3H-quinazolin-4-one] | – | – | < 1 | < 1 | < 1 | < 1 | < 1 | < 1 | > 10 | 1 to 10 (≈ 2.94 to 29.4 µM) | 1 to 10 (≈ 2.94 to 29.4 µM) | > 10 | < 1 | < 1
